Reference: patent publication US9340559B2, “Proteasome inhibitor delanzomib for use in the treatment of lupus” (Cephalon, Inc., priority 2011, dated 2016)

Experiments:
[1] = test system: NZM mice; experiment: Serum IL-12 by Luminex, NZM mice (Example 3); type: in vivo, mouse
Method: FIG. 48 depicts serum IL-12 concentration in NZM mice. Mean±SEM values for the concentration of mouse serum IL-12 from treated NZM mice at the end of the study.
For the processing of serum samples for cytokine analysis, frozen plasma at −80° C. is thawed on ice, vortexed, and centrifuged for 10 minutes (10,000×g) to remove debris and aggregates. A total of 25-50 μL of serum is used for Luminex assays following the manufacturer's instructions. Ten different mouse cytokines are measured using the mouse cytokine 20-plex bead kit (Invitrogen, Carlsbad, Calif., no. LMC0006). Briefly, filter plates (Millipore, Billerica, Mass., no. MAIPSWU10), are pre-wet with 200 μL of wash solution (kit component) and 25 μL of beads are added per well. Serum samples are diluted and a total volume of 50 μL is added per well (ie, 25 μL of sample serum plus 25 μL of assay diluent as provided by the manufacturer). Plates with beads are incubated for 2 hours at room temperature (RT) on an orbital shaker in the dark. At the end of the incubation, plate(s) are washed twice in kit buffer, secondary biotinylated antibody is added at a 1:10 dilution (100 μL) in biotin diluent provided with the kit. Plates are incubated at RT for 1 hour in the dark then washed twice in kit buffer. Strepavidin in assay diluent is added at 100 μL per well, then incubated for 30 minutes at RT in the dark. The plates are washed 3 times then 100 μL of kit wash solution is added and agitated for 2-3 minutes at RT in the dark. Plates are run immediately following this incubation period on a Luminex xMAP 200 unit with data acquisition and analysis software (Invitrogen, San Diego, Calif., no. MAP0200). All bead washing is performed using a vacuum manifold unit (Pall, Ann Arbor, Mich. no. 5017). For all cytokine Luminex assays, values below the limit of detection set by the lowest point along the standard or set by the manufacturer are considered out of range and are not estimated, but assumed the lowest point along the standard curve for that particular assay.

[2] = test system: NZM mice; experiment: Spleen CD38/CD138+ plasma cells by flow cytometry, NZM mice (Example 3)
[3] = test system: 20S proteasome; experiment: 20S proteasome activity in spleen (ex vivo fluorogenic assay), NZM mice (Example 2)
[4] = test system: NZM mice; experiment: Renal histopathology blinded scores, NZM mice (Example 3); type: in vivo, mouse
Method: FIG. 52 depicts renal histopathology scores from NZM mice (H&E stained paraffin wax embedded kidney tissues sections from 25 week old mice).
For histological analyses, the left kidney from each animal is removed and fixed in 10% buffered neutral formalin (EMD) for 48 hours on an orbital rocker at 25° C., then washed overnight with running dH2O and stored in 70% ethanol at 4° C. until ready to be processed. Kidney stains used for histological analyses included hematoxylin and eosin (H&E), Periodic Acid Schiff (PAS) and Trichrome stains (Wistar Institute, Philadelphia, Pa.). All 3 stained sections are used by the pathologist for scoring purposes. All histological scoring is performed blinded and by an independent board certified veterinary medical pathologist (Julie Engiles, VMD, DACVP). Multiple stains are used to determine score values. Images in FIG. 39 show worst affected area of section selected blindly by the pathologist.
Kidney IC-GN Scoring Method (Smith, Dong et al. 2007): […]

[5] = test system: IκBα; experiment: IκBα accumulation ELISA in kidney 3 hours post dose, MRL/lpr mice; type: in vivo, mouse
Method: (§1) Samples are homogenized frozen using a PT 10-35 Polytron homogenizer (VWR, no. 97036-082). […] Spleen proteasome activity is analyzed using 20S fluorogenic assay (Cayman Chemical Company, Cat #10008041, Lot #0414698-1) and modulation of proteasome activity in the kidney is analyzed using the IκBα accumulation ELISA assay (Cell Signaling, Cat #7355, Lot #17).

[6] = test system: IκBα; experiment: IκBα accumulation ELISA in kidney 3 hours post dosing, NZM mice (Example 2); type: in vivo, mouse
Method: as §1

[7] = test system: NZM mice; experiment: Survival, NZM mice, sc/ip dosing (Example 3); type: in vivo, mouse; details: Groups 1, 2, and 4
Method: FIG. 44 depicts survival of NZM mice across treatment groups for the study duration. NZM mice were treated as outlined in the legend. […] The overall percentage of surviving mice at the 91 day endpoint is listed in parentheses within the legend. * indicates p≦0.05.

[8] = test system: NZM mice; experiment: Antinuclear antibody ELISA (anti-Smith, anti-dsDNA), serum of NZM mice (Example 3)
[9] = test system: NZM mice; experiment: Total urine protein (proteinuria), NZM mice (Example 3); type: in vivo, mouse; details: Groups 1, 2, 4, and 5
Method: FIG. 45 depicts total urine protein (proteinuria) in NZM mice. Urine collected from NZM mice was analyzed for total protein content using a rat urinalysis kit.
Urine samples are acid precipitated for total protein analysis. For urine sample preparation, urine samples are centrifuged at 10,000 rpm for 3 minutes using a tabletop micro-centrifuge. 1-50 μL of urine supernatant is added in duplicate. PBS is added to adjust the volume to 50 μL total. For the turbidity assay: 25 μL of 0.1 N HCl is added into blank columns and 250 μL of 3% sulfosalicyclic acid into the test columns. The microplate is incubated for 10 minutes at RT and plates are read using an ELISA reader with single beam at 450 nm. A standard protein solution is prepared from normal mouse sera and is used as a standard for mouse urinary protein assay by turbidity. Standard preparation is as follows: 0, 5, 10, 15, 20, 30, 40, and 50 μL of a 4 mg/mL mouse sera standard protein solution as provided in the kit are added in duplicate into two columns. PBS is added to individual wells to adjust the final volume to 50 μL. Samples for which enough urine remains are used for Uristix® leukouria analysis. For the Uristix® strip assay, strips are laid out and labeled. Twenty microliters of urine are placed onto each test strip square and incubated for at least 30 seconds before the result is recorded. […]

[10] = in vivo; cited from earlier work

SMILES: CC(C)C[C@H](NC(=O)[C@@H](NC(=O)c1cccc(-c2ccccc2)n1)[C@@H](C)O)B(O)O [COMPOUND A, [(1R)-1-[[(2S,3R)-3-hydroxy-2-[6-phenyl-pyridine-2-carbonyl)amino]-1-oxobutyl]amino]-3-methylbutylboronic acid]
- serum IL-12 decrease vs vehicle ([1]; Group 1 (regimen: Table 42)): 92.8%
- serum IL-12 decrease vs vehicle ([1]; Group 2 (regimen: Table 42)): 76.6%
- serum IL-12 decrease vs vehicle ([1]; Group 4 (regimen: Table 42)): 75.7%
- serum IL-12 decrease vs vehicle ([1]; Group 5 (regimen: Table 42)): 70.8%
- spleen CD138/CD38 double positive plasma B cells decrease vs vehicle ([2]; Group 1 (regimen: Table 42)): 56.6%
- spleen CD138/CD38 double positive plasma B cells decrease vs vehicle ([2]; Group 2 (regimen: Table 42)): 38.1%
- spleen CD138/CD38 double positive plasma B cells decrease vs vehicle ([2]; Group 4 (regimen: Table 42)): 49.8%
- spleen CD138/CD38 double positive plasma B cells decrease vs vehicle ([2]; Group 5 (regimen: Table 42)): 24.3%
- spleen CD138/CD38 double positive plasma B cells decrease vs vehicle ([2]; Group 6 (regimen: Table 42)): 47.8%
- spleen 20S proteasome inhibition relative to vehicle ([3]; COMPOUND A groups): ~40%
- PD 20S proteasome activity, percent change vs vehicle ([3]; G1 3 mg/kg ip, 1× wk): −42%
- PD 20S proteasome activity, percent change vs vehicle ([3]; G2 3 mg/kg ip, 2× wk): −41%
- combined average renal histopathology blinded score decrease vs vehicle ([4]; Group 1 (regimen: Table 42)): 53%
- combined average renal histopathology blinded score decrease vs vehicle ([4]; Group 2 (regimen: Table 42)): 43.6%
- combined average renal histopathology blinded score decrease vs vehicle ([4]; Group 3 (regimen: Table 42)): 18.9%
- combined average renal histopathology blinded score decrease vs vehicle ([4]; Group 4 (regimen: Table 42)): 48.7%
- combined average renal histopathology blinded score decrease vs vehicle ([4]; Group 5 (regimen: Table 42)): 40.5%
- PD EOS IκBα accumulation, percent change vs vehicle ([5]; G1: 3 mg/kg iv, 1× wk): +537%
- PD EOS IκBα accumulation, percent change vs vehicle ([5]; G2: 3 mg/kg iv, 2× wk): +227%
- PD EOS IκBα accumulation, percent change vs vehicle ([5]; G3: 10 mg/kg po, 2× wk): +166%
- PD IκBα accumulation, percent change vs vehicle ([6]; G1 3 mg/kg ip, 1× wk): +33%
- p, kidney IκBα accumulation 3 hours post dosing vs G9 Vehicle 1× wk ip ([6]; G2 3 mg/kg 2× wk ip): p < 0.05
- PD IκBα accumulation, percent change vs vehicle ([6]; G2 3 mg/kg ip, 2× wk): +60%
- kidney IκBα increase above vehicle ([6]; twice weekly administration): ~40%
- survival relative to vehicle [7]: significantly increased survival
- serum anti-dsDNA ANA decrease vs vehicle ([8]; Group 1 (regimen: Table 42)): 79.6%
- serum anti-smith ANA decrease vs vehicle ([8]; Group 1 (regimen: Table 42)): 93.8%
- serum anti-dsDNA ANA decrease vs vehicle ([8]; Group 2 (regimen: Table 42)): 69.2%
- serum anti-smith ANA decrease vs vehicle ([8]; Group 2 (regimen: Table 42)): 85.0%
- serum anti-dsDNA ANA decrease vs vehicle ([8]; Group 4 (regimen: Table 42)): 84.1%
- serum anti-smith ANA decrease vs vehicle ([8]; Group 4 (regimen: Table 42)): 94.5%
- serum anti-dsDNA ANA decrease vs vehicle ([8]; Group 5 (regimen: Table 42)): 81.0%
- serum anti-smith ANA decrease vs vehicle ([8]; Group 5 (regimen: Table 42)): 92.4%
- proteinuria compared to vehicle (Group 10) and bortezomib ip (Group 7) [9]: reduced proteinuria

SMILES: CC(C)C[C@H](NC(=O)[C@H](Cc1ccccc1)NC(=O)c1cnccn1)B(O)O [bortezomib, reference compound]
- serum IL-12 decrease vs vehicle ([1]; Group 7, ip): 65.8%
- serum IL-12 decrease vs vehicle ([1]; Group 8, sc): 75.6%
- spleen CD138/CD38 double positive plasma B cells decrease vs vehicle ([2]; Group 7, ip): 35.4%
- spleen CD138/CD38 double positive plasma B cells decrease vs vehicle ([2]; Group 8, sc): 57.8%
- PD 20S proteasome activity, percent change vs vehicle ([3]; G3 0.3 mg/kg ip, 1× wk): −14%
- PD 20S proteasome activity, percent change vs vehicle ([3]; G4 0.3 mg/kg ip, 2× wk): −27%
- combined average renal histopathology blinded score decrease vs vehicle ([4]; Group 7, ip): 19.4%
- combined average renal histopathology blinded score decrease vs vehicle ([4]; Group 8, sc): 43.6%
- PD EOS IκBα accumulation, percent change vs vehicle ([5]; G4: 0.5 mg/kg iv, 1× wk): +340%
- PD EOS IκBα accumulation, percent change vs vehicle ([5]; G5: 0.3 mg/kg iv, 2× wk): +99%
- PD IκBα accumulation, percent change vs vehicle ([6]; G3 0.3 mg/kg ip, 1× wk): +61%
- PD IκBα accumulation, percent change vs vehicle ([6]; G4 0.3 mg/kg ip, 2× wk): +29%
- serious side effects [10]: polyneuropathy, thrombocytopenia and gastrointestinal complications
- serum anti-dsDNA ANA decrease vs vehicle ([8]; Group 7, ip): 25.8%
- serum anti-smith ANA decrease vs vehicle ([8]; Group 7, ip): 66.7%
- serum anti-dsDNA ANA decrease vs vehicle ([8]; Group 8, sc): 55.4%
- serum anti-smith ANA decrease vs vehicle ([8]; Group 8, sc): 85.7%
